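Tested at 5 concentrations; 48 h exposure; 96-well plates; endpoints linearly interpolated, else capped at highest concentration. Definition used: TGI = concentration required for complete inhibition of growth.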
Experiments:
Assay in all cases: DTP human tumour cell line panel, 48 h
[1] = tested on: A549 NSCLC
[2] = tested on: NCI-H226 lung
[3] = tested on: NCI-H522 lung
[4] = tested on: SNB-19 CNS
[5] = tested on: TK-10 renal
[6] = tested on: HOP-62 NSCLC
[7] = tested on: SR leukemia
[8] = tested on: BT-549 breast
[9] = tested on: PC-3 prostate
[10] = tested on: T-47D breast

SMILES | TGI [1] | TGI [2] | TGI [3] | TGI [4] | TGI [5] | TGI [6] | TGI [7] | TGI [8] | TGI [9] | TGI [10]
On1c(-c2ccccc2)c(-c2c(-c3ccccc3)n(O)c3ccccc23)c2ccccc21 | > 100 µM | 64.7 µM | 52.3 µM | > 100 µM | > 100 µM |  |  |  |  | 
COC(=O)/C(=C/c1ccc(OC)cc1)C(C(=O)O)=C(C)C | > 100 µM | > 100 µM | > 100 µM | > 100 µM | > 100 µM | > 100 µM | > 100 µM |  |  | 
CN(C)[C@@H]1C(=O)C(C(N)=O)=C(O)[C@@]2(O)C(=O)C3=C(O)c4c(O)cccc4C[C@H]3C[C@@H]12 | 5.52 µM |  | 4.29 µM | 4.47 µM | 7.53 µM | 4.21 µM | 6.05 µM |  |  | 
CSc1nc2c(c(N(C)C)n1)C=Nn1c(nc3ccccc31)S2 | > 100 µM | > 100 µM | > 100 µM | > 100 µM | > 100 µM | > 100 µM |  | > 100 µM | > 100 µM | > 100 µM
O=c1[nH]cnc2c1nnn2CCCn1nnc2c(=O)[nH]cnc21 | > 100 µM | > 100 µM | > 100 µM | > 100 µM | > 100 µM | > 100 µM | > 100 µM |  |  | 
C=C(NC(=O)C(=C)NC(=O)c1csc(C2=NC3c4csc(n4)C4NC(=O)c5csc(n5)C(C(C)(O)C(C)O)NC(=O)C5CSC(=N5)/C(=C/C)NC(=O)C(C(C)O)NC(=O)c5csc(n5)C3(CC2)NC(=O)C(C)NC(=O)C(=C)NC(=O)C(=C)NC(=O)C(C(C)C)NC2C=Cc3c(C(C)O)cc(nc3C2O)C(=O)OC4C)n1)C(N)=O (configuration not stated) | > 48.5 µM | 7.24 µM | 0.322 µM | 65.4 µM | > 94.8 µM | > 100 µM |  | 7.88 µM | > 100 µM | 25 µM
O=c1c2cc([N+](=O)[O-])ccc2n2n1Cc1ccccc1CC2 | > 100 µM | > 100 µM | > 100 µM | > 100 µM | > 100 µM | > 100 µM | > 100 µM | > 100 µM | > 100 µM | 
COc1ccc(-n2sc3ncc(-c4ccccc4)cc3c2=O)cc1 | > 100 µM | > 100 µM |  | 80.8 µM | > 100 µM | > 100 µM |  | > 100 µM | > 100 µM | > 100 µM
COc1ccc(NC(=S)NN=C(C)c2cccc(C(C)=NNC(=S)Nc3ccc(OC)cc3)n2)cc1 | > 100 µM | > 100 µM | > 100 µM | > 100 µM | > 100 µM | > 100 µM | > 100 µM |  | > 100 µM | > 100 µM
OCC(O)COc1ccc(Br)cc1 (configuration not stated) | > 100 µM | > 100 µM | > 100 µM | > 100 µM | > 100 µM | > 100 µM | > 100 µM |  |  | 
Nc1c(Br)cc(-c2cc(Br)c(N)c(Br)c2)cc1Br | > 100 µM | > 100 µM | > 100 µM | > 100 µM | > 100 µM | > 100 µM | > 100 µM |  | > 100 µM | > 100 µM
COc1ccc(-n2c(CCCC(=O)O)nc3c2C(=O)c2ccccc2C3=O)cc1 | > 100 µM |  | > 100 µM | > 100 µM | > 100 µM |  | > 100 µM | > 100 µM |  | > 100 µM
COc1ccc2c(c1O)-c1c(OC)c(OC)cc3c1[C@H](C2)[N+](C)(C)CC3 | > 100 µM | > 100 µM | > 100 µM | > 100 µM | > 100 µM |  |  | > 100 µM | > 100 µM | > 100 µM
O=C(NCCNCCO)N/N=C/c1cccc([N+](=O)[O-])c1 | > 100 µM | > 100 µM | > 100 µM |  | > 100 µM | > 100 µM |  |  |  | 
COC(=O)Cc1c([C@@H]2Nc3ccccc3[C@H]2CC(=O)OC)[nH]c2ccccc12 | > 100 µM | > 100 µM |  | > 100 µM | > 100 µM | > 100 µM | 71.4 µM | 75 µM | > 100 µM | 
C[N+]1(C)CC=C(N2CCOCC2)CC1 | > 10 µM | > 10 µM | > 10 µM | > 10 µM | > 10 µM | > 10 µM | > 10 µM |  | > 10 µM | > 10 µM
Cc1cc(Br)c(N2C3=C(CC4=C2CCCC4=O)C(=O)CCC3)c(Br)c1 | > 100 µM | > 100 µM |  | > 100 µM | > 100 µM |  | > 100 µM | > 100 µM | > 100 µM | 
COC(=O)C(=O)C(C(=O)C(=O)Nc1ccccc1C(=O)OC)c1nc2ccc(C(=O)c3ccccc3)cc2[nH]c1=O (configuration not stated) | > 100 µM | > 100 µM | > 100 µM |  | > 100 µM | > 100 µM |  | > 100 µM | > 100 µM | > 100 µM
